How the values were obtained:
corn (Zea mays) = assay: Test A postemergence, corn; assay type: in vivo; conditions: Zea mays, post-emergence, 240 h, 0 to 100 scale (0 no effect, 100 complete control)
[1] = tested on: pigweed (Amaranthus retroflexus); assay: Test A preemergence, pigweed; assay type: in vivo; conditions: Amaranthus retroflexus, pre-emergence, 240 h, 0 to 100 scale (0 no effect, 100 complete control), read-out: Plant response rating, Pigweed
rice (Oryza sativa) = assay: Test B flooded paddy test, rice; conditions: Oryza sativa, read-out: Plant response rating, Rice (0 to 100 scale, 0 is no effect, 100 is complete control)
kochia (Kochia scoparia) [2] = assay: Test A postemergence, kochia; assay type: in vivo; conditions: Bassia scoparia, post-emergence, 240 h, 0 to 100 scale (0 no effect, 100 complete control), read-out: Plant response rating, Kochia
[3] = tested on: ragweed (common ragweed, Ambrosia elatior); assay: Test A preemergence, ragweed; assay type: in vivo; conditions: Ambrosia artemisiifolia, pre-emergence, 240 h, 0 to 100 scale (0 no effect, 100 complete control), read-out: Plant response rating, Ragweed
[4] = tested on: pigweed (Amaranthus retroflexus); assay: Test A postemergence, pigweed; assay type: in vivo; conditions: Amaranthus retroflexus, post-emergence, 240 h, 0 to 100 scale (0 no effect, 100 complete control), read-out: Plant response rating, Pigweed
[5] = tested on: foxtail, green (green foxtail, Setaria viridis); assay: Test A postemergence, foxtail, green; assay type: in vivo; conditions: Setaria, post-emergence, 240 h, 0 to 100 scale (0 no effect, 100 complete control), read-out: Plant response rating, Foxtail, Green
Text: Seeds of plant species selected from barnyardgrass (Echinochloa crus-galli), kochia (Kochia scoparia), ragweed (common ragweed, Ambrosia elatior), ryegrass, Italian (Italian ryegrass, Lolium multiflorum), foxtail, giant (giant foxtail, Setaria faberii), foxtail, green (green foxtail, Setaria viridis) and pigweed (Amaranthus retroflexus) were planted into a blend of loam soil and sand and treated preemergence with a directed soil spray using test chemicals formulated in a non-phytotoxic solvent mixture which included a surfactant.
At the same time, plants selected from these weed species and also wheat (Triticum aestivum), corn (Zea mays), blackgrass (Alopecurus myosuroides), and galium (catchweed bedstraw, Galium aparine) were planted in pots containing the same blend of loam soil and sand and treated with postemergence applications of test chemicals formulated in the same manner. Plants ranged in height from 2 to 10 cm and were in the one- to two-leaf stage for the postemergence treatment. Treated plants and untreated controls were maintained in a greenhouse for approximately 10 days, after which time all treated plants were compared to untreated controls and visually evaluated for injury. […] A dash (-) response means no test result.

[6] = tested on: blackgrass (Alopecurus myosuroides); assay: Test A postemergence, blackgrass; assay type: in vivo; conditions: Alopecurus myosuroides, post-emergence, 240 h, 0 to 100 scale (0 no effect, 100 complete control), read-out: Plant response rating, Blackgrass
[7] = tested on: barnyardgrass (Echinochloa crus-galli); assay: Test A preemergence, barnyardgrass; assay type: in vivo; conditions: Echinochloa crus-galli, pre-emergence, 240 h, 0 to 100 scale (0 no effect, 100 complete control), read-out: Plant response rating, Barnyardgrass
[8] = tested on: ducksalad (Heteranthera limosa); assay: Test B flooded paddy test, ducksalad; conditions: Heteranthera limosa, read-out: Plant response rating, Ducksalad (0 to 100 scale, 0 is no effect, 100 is complete control)
kochia (Kochia scoparia) [9] = assay: Test A preemergence, kochia; assay type: in vivo; conditions: Bassia scoparia, pre-emergence, 240 h, 0 to 100 scale (0 no effect, 100 complete control), read-out: Plant response rating, Kochia
[10] = tested on: ragweed (common ragweed, Ambrosia elatior); assay: Test A postemergence, ragweed; assay type: in vivo; conditions: Ambrosia artemisiifolia, post-emergence, 240 h, 0 to 100 scale (0 no effect, 100 complete control), read-out: Plant response rating, Ragweed
[11] = tested on: barnyardgrass (Echinochloa crus-galli); assay: Test B flooded paddy test, barnyardgrass; conditions: Echinochloa crus-galli, read-out: Plant response rating, Barnyardgrass (0 to 100 scale, 0 is no effect, 100 is complete control)
[12] = tested on: ryegrass, Italian (Italian ryegrass, Lolium multiflorum); assay: Test A postemergence, ryegrass, Italian; assay type: in vivo; conditions: Lolium multiflorum, post-emergence, 240 h, 0 to 100 scale (0 no effect, 100 complete control), read-out: Plant response rating, Ryegrass, Italian
[13] = tested on: wheat (Triticum aestivum); assay: Test A postemergence, wheat; assay type: in vivo; conditions: Triticum aestivum, post-emergence, 240 h, 0 to 100 scale (0 no effect, 100 complete control), read-out: Plant response rating, Wheat
[14] = tested on: galium (catchweed bedstraw, Galium aparine); assay: Test A postemergence, galium; assay type: in vivo; conditions: Galium, post-emergence, 240 h, 0 to 100 scale (0 no effect, 100 complete control), read-out: Plant response rating, Galium
[15] = tested on: ryegrass, Italian (Italian ryegrass, Lolium multiflorum); assay: Test A preemergence, ryegrass, Italian; assay type: in vivo; conditions: Lolium multiflorum, pre-emergence, 240 h, 0 to 100 scale (0 no effect, 100 complete control), read-out: Plant response rating, Ryegrass, Italian
[16] = tested on: barnyardgrass (Echinochloa crus-galli); assay: Test A postemergence, barnyardgrass; assay type: in vivo; conditions: Echinochloa crus-galli, post-emergence, 240 h, 0 to 100 scale (0 no effect, 100 complete control), read-out: Plant response rating, Barnyardgrass

O=C1OC(CCCC(F)(F)F)c2c(Oc3ncc(Cl)cn3)cccc21 (stereo not drawn) [Compound 1, 4-[(5-Chloro-2-pyrimidinyl)oxy]-3-(4,4,4-trifluorobutyl)-1(3H)-isobenzofuranone]
Corn plant response rating (crop injury, 0 = no effect, 100 = complete kill) at 125 g/ha (corn (Zea mays); 125 g ai/ha): 40%
Corn plant response rating (crop injury, 0 = no effect, 100 = complete kill) at 500 g/ha (corn (Zea mays); 500 g ai/ha): 60%
pest or weed control at 125 g/ha ([1]; 125 g ai/ha): 100%
pest or weed control at 500 g/ha ([1]; 500 g ai/ha): 100%
plant injury at 250 g/ha (rice (Oryza sativa)): 0%
pest or weed control at 125 g/ha (kochia (Kochia scoparia) [2]; 125 g ai/ha): 100%
pest or weed control at 500 g/ha (kochia (Kochia scoparia) [2]; 500 g ai/ha): 100%
pest or weed control at 125 g/ha ([3]; 125 g ai/ha): 80%
pest or weed control at 500 g/ha ([3]; 500 g ai/ha): 90%
pest or weed control at 125 g/ha ([4]; 125 g ai/ha): 100%
pest or weed control at 500 g/ha ([4]; 500 g ai/ha): 100%
pest or weed control at 125 g/ha ([5]; 125 g ai/ha): 90%
pest or weed control at 500 g/ha ([5]; 500 g ai/ha): 100%
pest or weed control at 125 g/ha ([6]; 125 g ai/ha): 40%
pest or weed control at 500 g/ha ([6]; 500 g ai/ha): 100%
pest or weed control at 125 g/ha ([7]; 125 g ai/ha): 100%
pest or weed control at 500 g/ha ([7]; 500 g ai/ha): 100%
pest or weed control at 250 g/ha [8]: 20%
pest or weed control at 125 g/ha (kochia (Kochia scoparia) [9]; 125 g ai/ha): 100%
pest or weed control at 500 g/ha (kochia (Kochia scoparia) [9]; 500 g ai/ha): 100%
pest or weed control at 125 g/ha ([10]; 125 g ai/ha): 10%
pest or weed control at 500 g/ha ([10]; 500 g ai/ha): 40%
pest or weed control at 250 g/ha [11]: 0%
pest or weed control at 125 g/ha ([12]; 125 g ai/ha): 50%
pest or weed control at 500 g/ha ([12]; 500 g ai/ha): 80%
plant injury at 125 g/ha ([13]; 125 g ai/ha): 30%
plant injury at 500 g/ha ([13]; 500 g ai/ha): 80%
pest or weed control at 125 g/ha ([14]; 125 g ai/ha): 100%
pest or weed control at 500 g/ha ([14]; 500 g ai/ha): 100%
pest or weed control at 125 g/ha ([15]; 125 g ai/ha): 80%
pest or weed control at 500 g/ha ([15]; 500 g ai/ha): 100%
pest or weed control at 125 g/ha ([16]; 125 g ai/ha): 70%
pest or weed control at 500 g/ha ([16]; 500 g ai/ha): 80%
